This note sets out measurements from US9283222B2 (priority 2006, dated 2016).

In test [1] the target is Recombinant Human Poly(ADP-Ribose) Polymerase (PARP), PARP-1 (Homo sapiens (Human), UniProt P09874). The following applies: read-out: PARP-1 (Ki).
Method: Nicotinamide[2,5′,8-3H]adenine dinucleotide and strepavidin SPA beads were purchased from Amersham Biosiences. […] NAD^+, histone, aminobenzamide, 3-amino benzamide and Calf Thymus DNA (dcDNA) were purchased from Sigma. Stem loop oligonucleotide containing MCAT sequence was obtained from Qiagen. The oligos were dissolved to 1 mM in annealing buffer containing 10 mM Tris HCl pH 7.5, 1 mM EDTA, and 50 mM NaCl, incubated for 5 minutes at 95° C., and annealed at 45° C. for 45 minutes. […] Biotinylated histone H1 was prepared by treating the protein with Sulfo-NHS-LC-Biotin from Pierce. The biotinylation reaction was conducted by slowly and intermittently adding 3 equivalents of 10 mM Sulfo-NHS-LC-Biotin to 100 μM Histone H1 in phosphate-buffered saline, pH 7.5, at 4° C. with gentle vortexing over 1 minute followed by subsequent 4° C. incubation for 1 hour. Streptavidin coated (FlashPlate Plus) microplates were purchased from Perkin Elmer.
PARP1 assay was conducted in PARP assay buffer containing 50 mM Tris pH 8.0, 1 mM DTT, 4 mM MgCl2. […] Auto reactions utilizing SPA bead-based detection were carried out in 100 μL volumes in white 96 well plates.
The next test has as its target PARP in C41 cells (Homo sapiens (Human), UniProt P09874).
[2] abbreviates: Table 3, H analogs versus para-F analogs.
[3] abbreviates: Table 3, C41 cells, ratio to comparator EC50.
Where [4] appears, read: Table 1, text calls the values EC50s.

Each structure is given as a SMILES string. Where two headings read alike, the source gives them in different places.

Sequence of Recombinant Human Poly(ADP-Ribose) Polymerase (PARP), PARP-1 (P09874 whole entry): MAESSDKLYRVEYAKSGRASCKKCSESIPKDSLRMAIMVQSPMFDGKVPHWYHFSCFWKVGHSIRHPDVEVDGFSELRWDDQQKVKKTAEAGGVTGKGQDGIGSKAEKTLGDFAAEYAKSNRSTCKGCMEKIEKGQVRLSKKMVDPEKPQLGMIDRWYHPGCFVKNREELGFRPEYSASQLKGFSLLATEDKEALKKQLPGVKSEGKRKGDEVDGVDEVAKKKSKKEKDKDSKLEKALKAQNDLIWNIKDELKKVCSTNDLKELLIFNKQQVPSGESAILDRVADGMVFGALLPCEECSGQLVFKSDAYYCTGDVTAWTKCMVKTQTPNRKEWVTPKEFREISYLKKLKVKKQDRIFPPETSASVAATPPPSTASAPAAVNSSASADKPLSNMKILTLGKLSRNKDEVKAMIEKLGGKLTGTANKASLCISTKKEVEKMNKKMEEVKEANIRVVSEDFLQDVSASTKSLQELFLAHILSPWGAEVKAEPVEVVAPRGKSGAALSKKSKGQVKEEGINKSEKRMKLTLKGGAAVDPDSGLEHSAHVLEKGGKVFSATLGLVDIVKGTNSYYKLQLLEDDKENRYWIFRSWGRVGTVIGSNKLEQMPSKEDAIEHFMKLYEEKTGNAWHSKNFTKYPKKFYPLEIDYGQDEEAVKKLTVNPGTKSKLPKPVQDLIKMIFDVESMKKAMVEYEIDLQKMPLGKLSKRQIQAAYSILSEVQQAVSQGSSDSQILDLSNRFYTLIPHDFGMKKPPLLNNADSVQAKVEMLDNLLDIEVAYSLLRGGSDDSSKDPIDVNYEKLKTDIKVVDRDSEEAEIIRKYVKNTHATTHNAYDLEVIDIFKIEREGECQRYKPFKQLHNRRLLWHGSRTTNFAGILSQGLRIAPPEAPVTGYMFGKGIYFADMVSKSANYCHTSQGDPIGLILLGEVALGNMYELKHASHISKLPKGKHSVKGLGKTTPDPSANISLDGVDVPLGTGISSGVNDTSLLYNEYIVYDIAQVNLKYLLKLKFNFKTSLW
Sequence of PARP in C41 cells (P09874 whole entry): as above

Usually Ki stands for the dissociation constant of the complex between target and ligand, obtained from inhibition or displacement. With `O=C(c1cc(Cc2n[nH]c(=O)c3c2CCCC3)ccc1F)N1CCC(O)CC1` [drawing 47], the Ki in test [1] (setting [2]) was found to be 1.3 nM. The “Cell EC50 ratio” value on PARP in C41 cells (setting [3]) stood at 2.

In the case of `O=C(c1cccc(Cc2n[nH]c(=O)c3c2CCCC3)c1)N1CCN(c2ccccc2Cl)CC1` [drawing 36], in test [1] (setting [2]), the Ki is 10 nM. Further, the “Cell EC50 ratio” value on PARP in C41 cells (setting [3]) is 15.

As for `Cc1c(C(=O)Nc2cccc(Cc3n[nH]c(=O)c4c3CCCC4)c2)cnn1-c1ccccc1` [drawing 22], the Ki in test [1] (setting [2]) turned out to be 9 nM. At PARP in C41 cells (setting [3]), the “Cell EC50 ratio” value is reported as 14.1.

`O=C1CCC(=O)N1c1cc(Cc2n[nH]c(=O)c3c2CCCC3)ccc1F`: the Ki in test [1] (setting [2]) worked out at 1.1 nM. Further, at PARP in C41 cells (setting [3]), the “Cell EC50 ratio” value was 0.19.

In the case of `NCC(=O)Nc1cc(Cc2n[nH]c(=O)c3c2CCCC3)ccc1F`, the Ki in test [1] (setting [2]) was 2.9 nM. Moreover, the “Cell EC50 ratio” value at PARP in C41 cells is recorded as 5.8.

For `O=C1CCN1c1cc(Cc2n[nH]c(=O)c3c2CCCC3)ccc1F`, the Ki in test [1] (Table 2, A2 is C1-alkyl versus no A2 (bond)) is 6 nM. Moreover, at PARP in C41 cells (Table 2, C41 cells, ratio to comparator EC50), the “Cell Ratio EC50” value is 16.4.

As for `O=C(CCCC(=O)Nc1cc(Cc2n[nH]c(=O)c3c2CCCC3)ccc1F)Nc1ccccc1` [drawing 21], in test [1] (setting [2]), the Ki amounted to 0.6 nM. The “Cell EC50 ratio” value on PARP in C41 cells (setting [3]) worked out at 0.34.

Regarding `O=C(c1cc(Cc2n[nH]c(=O)c3c2CCCC3)ccc1F)N1CCN(c2ccccn2)CC1` [drawing 33], the Ki in test [1] (setting [2]) came out at 2 nM. In addition, the “Cell EC50 ratio” value at PARP in C41 cells (setting [3]) is recorded as 0.4.

On to `O=C1CCCN1c1cccc(Cc2n[nH]c(=O)c3c2CCCC3)c1` [drawing 16], for which the Ki in test [1] (setting [2]) amounted to 39.6 nM. The “Cell EC50 ratio” value at PARP in C41 cells (setting [3]) was found to be 40.9.

As to `NC(=O)C1CCCN(C(=O)c2cc(Cc3n[nH]c(=O)c4c3CCCC4)ccc2F)C1` (stereo not shown) [drawing 45], the Ki in test [1] (setting [2]) was 3 nM. Besides, the “Cell EC50 ratio” value on PARP in C41 cells (setting [3]) is 28.

In the case of `O=C(c1cccc(Cc2n[nH]c(=O)c3c2CCCC3)c1)N1CCN(c2ccc(F)cc2)CC1` [drawing 40], the Ki in test [1] (setting [2]) stood at 6 nM. The “Cell EC50 ratio” value on PARP in C41 cells (setting [3]) came to 2.2.

Consider `O=C(CCN1CCCCC1)Nc1cc(Cc2n[nH]c(=O)c3c2CCCC3)ccc1F`, for which, in test [1] (setting [2]), the Ki is 18.4 nM. Besides, on PARP in C41 cells, the “Cell EC50 ratio” value is reported as 5.6.

In the case of `CN(C)CCN(C)C(=O)c1cc(Cc2n[nH]c(=O)c3c2CCCC3)ccc1F` [drawing 53], the Ki in test [1] (setting [2]) was 3.6 nM. Moreover, the “Cell EC50 ratio” value on PARP in C41 cells (setting [3]) is 0.7.

Consider `NC(=O)C1CCN(C(=O)c2cc(Cc3n[nH]c(=O)c4c3CCCC4)ccc2F)CC1` [drawing 49], for which the Ki in test [1] (setting [2]) was found to be 2.7 nM. The “Cell EC50 ratio” value at PARP in C41 cells (setting [3]) was 25.

Turning to `O=C(c1cc(Cc2n[nH]c(=O)c3c2CCCC3)ccc1F)N1CCN(c2ccccc2)CC1` [drawing 35], the Ki in test [1] (setting [2]) was determined as 3 nM. Also, the “Cell EC50 ratio” value at PARP in C41 cells (setting [3]) turned out to be 0.9.

As to `O=C(c1cc(Cc2n[nH]c(=O)c3c2CCCC3)ccc1F)N1CCN(c2ccccc2Cl)CC1` [drawing 37], in test [1] (setting [2]), the Ki worked out at 5 nM. Also, at PARP in C41 cells (setting [3]), the “Cell EC50 ratio” value was found to be 6.

With `O=C(CCCC(=O)Nc1cccc(Cc2n[nH]c(=O)c3c2CCCC3)c1)Nc1ccccc1` [drawing 20], the Ki in test [1] (setting [2]) amounted to 3.2 nM. At PARP in C41 cells (setting [3]), the “Cell EC50 ratio” value was determined as 3.2.

In the case of `O=C(c1cc(Cc2n[nH]c(=O)c3c2CCCC3)ccc1F)N1CCN(c2ccc(F)cc2)CC1` [drawing 41], in test [1] (setting [2]), the Ki stood at 4 nM. Moreover, the “Cell EC50 ratio” value on PARP in C41 cells was found to be 0.8.

`CCN(CC)C(=O)C1CCCN(C(=O)c2cc(Cc3n[nH]c(=O)c4c3CCCC4)ccc2F)C1` (stereo not shown) [drawing 51]: the Ki in test [1] (setting [2]) came out at 6 nM. Besides, the “Cell EC50 ratio” value at PARP in C41 cells (setting [3]) is reported as 17.

In the case of `CN1CCCN(C(=O)c2cccc(Cc3n[nH]c(=O)c4c3CCCC4)c2)CC1` [drawing 42], in test [1] (setting [2]), the Ki was 10 nM. At PARP in C41 cells (setting [3]), the “Cell EC50 ratio” value is on record as 3.8.

In the case of `CN(C)CCN(C)C(=O)c1cccc(Cc2n[nH]c(=O)c3c2CCCC3)c1`, the Ki in test [1] (setting [2]) was 13 nM. Besides, on PARP in C41 cells (setting [3]), the “Cell EC50 ratio” value is given as 3.

Turning to `CN1CCN(CCNC(=O)c2cc(Cc3n[nH]c(=O)c4c3CCCC4)ccc2F)CC1` [drawing 55], in test [1] (setting [2]), the Ki is 1.1 nM. Moreover, the “Cell EC50 ratio” value on PARP in C41 cells (setting [3]) came to 0.6.

With `COc1ccc(C(=O)CCC(=O)Nc2cccc(Cc3n[nH]c(=O)c4c3CCCC4)c2)cc1` [drawing 14], in test [1] (setting [2]), the Ki came out at 1.9 nM. The “Cell EC50 ratio” value on PARP in C41 cells (setting [3]) worked out at 20.9.

Take `O=C(Nc1cccc(Cc2n[nH]c(=O)c3c2CCCC3)c1)c1ccoc1` [Example 194, N-(3-((4-oxo-3,4,5,6,7,8-hexahydrophthalazin-1-yl)methyl)phenyl)-3-furamide]: the Ki in test [1] (setting [4]) came to 61 nM.

Take `Cc1ccc(CCNC(=O)c2cccc(Cc3n[nH]c(=O)c4c3CCCC4)c2)cc1` [Example 378, N-(2-(4-methylphenyl)ethyl)-3-((4-oxo-3,4,5,6,7,8-hexahydrophthalazin-1-yl)methyl)benzamide]: the Ki in test [1] (setting [4]) worked out at 28 nM.

Turning to `CC(=O)N1CCC(C(=O)Nc2cccc(Cc3n[nH]c(=O)c4c3CCCC4)c2)CC1` [Example 155, 1-acetyl-N-(3-((4-oxo-3,4,5,6,7,8-hexahydrophthalazin-1-yl)methyl)phenyl)piperidine-4-carboxamide], the Ki in test [1] (setting [4]) was 126 nM.

Turning to `CNC(=O)c1ccc(Cc2n[nH]c(=O)c3c2CCCC3)s1` [Example 110, N-methyl-5-((4-oxo-3,4,5,6,7,8-hexahydrophthalazin-1-yl)methyl)thiophene-2-carboxamide], the Ki in test [1] (setting [4]) turned out to be 372 nM.

On to `COc1ccc(OC)c(CCC(=O)Nc2cccc(Cc3n[nH]c(=O)c4c3CCCC4)c2)c1` [Example 144, 3-(2,5-dimethoxyphenyl)-N-(3-((4-oxo-3,4,5,6,7,8-hexahydrophthalazin-1-yl)methyl)phenyl)propanamide], for which, in test [1] (setting [4]), the Ki amounted to 125 nM.

In the case of `CC(C)(C)OC(=O)N1CCN(C(=O)c2cc(Cc3n[nH]c(=O)c4c3NCCC4)ccc2F)[C@H](c2ccccc2)C1` [Example 614, tert-butyl (3R)-4-{2-fluoro-5-[(5-oxo-1,2,3,4,5,6-hexahydropyrido[2,3-d]pyridazin-8-yl)methyl]benzoyl}-3-phenylpiperazine-1-carboxylate], the Ki in test [1] (setting [4]) was determined as 25 nM.

For the molecule `Nc1cc(Cc2n[nH]c(=O)c3c2CCCC3)ccc1O` [Example 280, 4-(3-amino-4-hydroxybenzyl)-5,6,7,8-tetrahydrophthalazin-1(2H)-one], the inhibition constant Ki in test [1] (setting [4]) worked out at 303 nM.

As to `O=C(c1cc(Cc2n[nH]c(=O)c3c2CCCC3)ccc1F)N1CCN(c2ccncc2)CC1` [Example 497, 4-{4-fluoro-3-[(4-pyridin-4-ylpiperazin-1-yl)carbonyl]benzyl}-5,6,7,8-tetrahydrophthalazin-1(2H)-one], in test [1] (setting [4]), the Ki was determined as 1.1 nM.

For the molecule `O=C(NC1CCC1)c1cc(Cc2n[nH]c(=O)c3c2NCCC3)ccc1F` [Example 471, N-cyclobutyl-2-fluoro-5-((5-oxo-1,2,3,4,5,6-hexahydropyrido(2,3-d)pyridazin-8-yl)methyl)benzamide], in test [1] (setting [4]), the Ki is 51 nM.

Consider `O=C(Nc1ccc(Cc2n[nH]c(=O)c3c2CCCC3)cn1)c1cccnc1` [Example 108, N-(5-((4-oxo-3,4,5,6,7,8-hexahydrophthalazin-1-yl)methyl)pyridin-2-yl)nicotinamide], for which the Ki in test [1] (setting [4]) is 576 nM.

In the case of `CC(C)Oc1ccc(C(=O)Nc2cccc(Cc3n[nH]c(=O)c4c3CCCC4)c2)cc1` [Example 188, 4-isopropoxy-N-(3-((4-oxo-3,4,5,6,7,8-hexahydrophthalazin-1-yl)methyl)phenyl)benzamide], in test [1] (setting [4]), the Ki is 185 nM.

As to `O=C(Nc1cccc2c(O)cccc12)c1cccc(Cc2n[nH]c(=O)c3c2CCCC3)c1` [Example 367, N-(5-hydroxy-1-naphthyl)-3-((4-oxo-3,4,5,6,7,8-hexahydrophthalazin-1-yl)methyl)benzamide], in test [1] (setting [4]), the Ki was determined as 45 nM.

Turning to `O=C1CC[C@H](C(=O)Nc2cccc(Cc3n[nH]c(=O)c4c3CCCC4)c2)N1` [Example 140, 5-oxo-N-(3-((4-oxo-3,4,5,6,7,8-hexahydrophthalazin-1-yl)methyl)phenyl)-D-prolinamide], the Ki in test [1] (setting [4]) was 60 nM.

Turning to `CC(Cc1n[nH]c(=O)c2c1CCCC2)c1cccc(-c2cccc(C(N)=O)c2)c1` (stereo not shown) [Example 283, 3′-(1-methyl-2-(4-oxo-3,4,5,6,7,8-hexahydrophthalazin-1-yl)ethyl)-1,1′-biphenyl-3-carboxamide], in test [1] (setting [4]), the Ki came out at 442 nM.

In the case of `O=C(NN1CCCCCC1)c1cccc(Cc2n[nH]c(=O)c3c2CCCC3)c1` [Example 54, N-azepan-1-yl-3-((4-oxo-3,4,5,6,7,8-hexahydrophthalazin-1-yl)methyl)benzamide], in test [1] (setting [4]), the Ki worked out at 205 nM.

Regarding `Cc1ccc(C(=O)c2ccccc2C(=O)Nc2cccc(Cc3n[nH]c(=O)c4c3CCCC4)c2)cc1` [Example 244, 2-(4-methylbenzoyl)-N-(3-((4-oxo-3,4,5,6,7,8-hexahydrophthalazin-1-yl)methyl)phenyl)benzamide], the Ki in test [1] (setting [4]) was found to be 2340 nM.

With `CCNC(=O)c1ncccc1Cc1n[nH]c(=O)c2c1CCCC2` [Example 96, N-ethyl-3-((4-oxo-3,4,5,6,7,8-hexahydrophthalazin-1-yl)methyl)pyridine-2-carboxamide], the Ki in test [1] (setting [4]) was found to be 2610 nM.

As for `O=C(c1cccc(Cc2n[nH]c(=O)c3c2CCCC3)c1)N1CCN(c2ccccc2F)CC1` [Example 444, 4-(3-((4-(2-fluorophenyl)piperazin-1-yl)carbonyl)benzyl)-5,6,7,8-tetrahydrophthalazin-1(2H)-one], the Ki in test [1] (setting [4]) was 4 nM.

On to `O=C(Nc1cccc(Cc2n[nH]c(=O)c3c2CCCC3)c1)c1ccccc1I` [Example 245, 2-iodo-N-(3-((4-oxo-3,4,5,6,7,8-hexahydrophthalazin-1-yl)methyl)phenyl)benzamide], for which, in test [1] (setting [4]), the Ki is 963 nM.

As to `O=C(c1cnc2ccccc2c1)N1CCCN(C(=O)c2cc(Cc3n[nH]c(=O)c4c3NCCC4)ccc2F)CC1` [Example 688, 8-(4-fluoro-3-{[4-(quinolin-3-ylcarbonyl)-1,4-diazepan-1-yl]carbonyl}benzyl)-2,3,4,6-tetrahydropyrido[2,3-d]pyridazin-5(1H)-one], the Ki in test [1] (setting [4]) came out at 2.4 nM.

For `O=c1[nH]nc(Cc2cccc(NS(=O)(=O)c3ccccc3)c2)c2c1CCCC2` [Example 116, N-(3-((4-oxo-3,4,5,6,7,8-hexahydrophthalazin-1-yl)methyl)phenyl)benzenesulfonamide], the Ki in test [1] (setting [4]) worked out at 578 nM.
